ChEMBL document CHEMBL3507680, “University of Dundee, Gates Library screen for HepG2 cell viability”

Assay: Human HepG2 cell viability assay in 384 well format
Format: toxicity, cell-based
Set-up: dose 125 nL, time 70.5 hour; concentration not given beside the values
Details: HepG2 cells, read-out: Inhibition

CC(C)c1csc(C2CCCN(C(=O)c3ccc[nH]3)C2)n1 (centres undefined)
cytotoxicity at 70.5 h: -4.24%

CN1CCN(Cc2cnc(S(=O)(=O)CC3CC3)n2CC2CCCO2)CC1 (centres undefined)
cytotoxicity at 70.5 h: -4.87%

CNC(=O)CN1CCCC12CCN(Cc1c[nH]cn1)CC2
cytotoxicity at 70.5 h: -24.2%

CN(Cc1cccc(F)c1)C(=O)CN1CCCC1CCc1ccccc1 (centres undefined)
cytotoxicity at 70.5 h: -4.07%

COc1ncccc1NC(=O)NC1CCCN(c2ncccn2)C1 (centres undefined)
cytotoxicity at 70.5 h: 1.22%

O=S(=O)(CCN1CCc2c(ncn2C2CC2)C1)c1ccccc1
cytotoxicity at 70.5 h: 16.5%

CC(C)CCC(=O)NCCc1ccn(-c2ccccc2)n1
cytotoxicity at 70.5 h: -5.88%

C[C@@H]1CN(CCOc2ccc(Cl)cc2)CC[C@@]1(O)C1CCOCC1
cytotoxicity at 70.5 h: 7.29%

CCS(=O)(=O)N1CCC(NC(=O)c2cc(C)ccc2O)CC1
cytotoxicity at 70.5 h: -5.66%

CCS(=O)(=O)c1ccc(N2CCC(NC(=O)C(C)SC)CC2)cc1 (centres undefined)
cytotoxicity at 70.5 h: -6.83%

CCn1ncc(C(=O)NCc2ccc(C)c(OC)c2)c1C(F)(F)F
cytotoxicity at 70.5 h: -21.3%

COc1cccc(F)c1-c1c[nH]c(C)n1
cytotoxicity at 70.5 h: 11.7%

OC(COc1ccc2c(c1)OCO2)CN1CC(n2cccn2)C1 (centres undefined)
cytotoxicity at 70.5 h: -3.37%

CSc1ncc(CN2CC(Oc3c(C)cccc3C)C2)cn1
cytotoxicity at 70.5 h: -2.81%

NS(=O)(=O)CCNC(=O)CCc1cc(Br)cs1
cytotoxicity at 70.5 h: 1.86%

c1cnn(Cc2cn3c(n2)CN(Cc2nccs2)CC3)c1
cytotoxicity at 70.5 h: -3.15%

CCOc1ccc(CN(C)C(=O)NC(C)c2nncn2C)cc1 (centres undefined)
cytotoxicity at 70.5 h: 8.83%

Cc1ccc(-n2nc(C)cc2N)nn1
cytotoxicity at 70.5 h: -14.8%

Cc1cccc(C(C(=O)N(C)CCc2cn[nH]c2)N(C)C)c1 (centres undefined)
cytotoxicity at 70.5 h: -8.71%

O=C(O)CC[C@@H]1CN(c2ncccc2F)CC[C@@H]1N1CCOCC1
cytotoxicity at 70.5 h: -8.92%

COc1cccc(C2CCCN2C(=O)c2ccc(=O)n(C)c2)c1 (centres undefined)
cytotoxicity at 70.5 h: -3.72%

Cn1cc(C(=O)N2CCCC(Cc3cncc4ccccc34)C2)cn1 (centres undefined)
cytotoxicity at 70.5 h: -1.78%

COc1cccc(CNc2cc(CO)ccc2Cl)c1
cytotoxicity at 70.5 h: -8.65%

CN(C(=O)CSc1ncc[nH]1)C1CC1
cytotoxicity at 70.5 h: -3.27%

CN(Cc1ccon1)C(=O)C1CC(=O)N(Cc2ccncc2)C1 (centres undefined)
cytotoxicity at 70.5 h: -6.33%

CCCc1nc(CN(CC)C(=O)c2ccc3[nH]cnc3c2)no1
cytotoxicity at 70.5 h: 23.9%

C[C@@H]1CN(C2(C(=O)N(C)C)Cc3ccccc3C2)C[C@H](C)O1
cytotoxicity at 70.5 h: 13.4%

COCC(=O)N1CCCC1c1nc(O)cc(C(C)C)n1 (centres undefined)
cytotoxicity at 70.5 h: 1.53%

COCCNc1c(-c2ccc(C)cc2)c(=O)c1=O
cytotoxicity at 70.5 h: -9.49%

CCN(C)c1ncnc2c1CCN(Cc1ccc(OC)cc1)CC2
cytotoxicity at 70.5 h: -2.63%

Cc1cc(CN2CCC(O)(Cn3ccc4ncccc43)CC2)c(C)s1
cytotoxicity at 70.5 h: 4.82%

NC(=O)C1CCN(CCc2ccc(NCc3cccnc3)cc2)CC1
cytotoxicity at 70.5 h: 4.26%

O=S(=O)(N1CCCCC1)N1CCC(Oc2cnccn2)CC1
cytotoxicity at 70.5 h: -2.24%

COc1cccc(-c2n[nH]cc2C(=O)NC(C)c2nc(C(C)C)no2)c1 (centres undefined)
cytotoxicity at 70.5 h: -8.56%

OCc1ccc(CN(CCCn2ccnc2)Cc2cccnc2)o1
cytotoxicity at 70.5 h: -8.65%

CCCc1noc(CCC(=O)N2CCCC2c2ccncc2)n1 (centres undefined)
cytotoxicity at 70.5 h: -5.95%

Cn1nc2c(cc1=O)CN(CCc1nc3ccccc3c(=O)[nH]1)CC2
cytotoxicity at 70.5 h: 1.45%

Cc1ncsc1C(=O)N(C)Cc1ccncc1
cytotoxicity at 70.5 h: 28.4%

CC(=O)N[C@H]1CCO[C@@H](c2cccc(NC(=O)c3cccc(F)c3)c2)C1
cytotoxicity at 70.5 h: -8.41%

COCCn1cc(CC(=O)Nc2nc[nH]n2)c2ccccc21
cytotoxicity at 70.5 h: -6.37%

CC(Nc1ccc(CN2CCCC2=O)cc1)C(=O)N(C)CCC#N (centres undefined)
cytotoxicity at 70.5 h: 0.0537%

CN(Cc1ccc2c(c1)OCCO2)c1ncc(S(N)(=O)=O)s1
cytotoxicity at 70.5 h: 8.35%

Cc1ncc2c(c1CNC(=O)C1(C)CCCO1)CCNC2 (centres undefined)
cytotoxicity at 70.5 h: -7.21%

Cc1cccc(CN2C[C@@H](F)[C@@H](OCc3nc4ccccc4[nH]3)C2)n1
cytotoxicity at 70.5 h: -1.57%

COc1cc(C)cc(C(C(=O)O)N(C)CCN2CCCC2)c1OC (centres undefined)
cytotoxicity at 70.5 h: -2.88%

Cc1ncc(CN(C)C(=O)Nc2ccc(CN3CCOC3=O)cc2)s1
cytotoxicity at 70.5 h: -7.05%

Cc1nc(CNC(=O)c2oc3ccccc3c2CN(C)C)oc1C
cytotoxicity at 70.5 h: -8.24%

O=S(=O)(NCCSc1nccn1C1CC1)c1ccccc1
cytotoxicity at 70.5 h: -3.08%

CCN1C(=O)CO[C@@H]2CN(C(=O)C3CCOCC3)C[C@H]21
cytotoxicity at 70.5 h: -6.45%

O=C(C1CC=CC1)N1CCC2(CCC(=O)N2Cc2cccc(F)c2)CC1
cytotoxicity at 70.5 h: 2.09%

O=C(CC1CCCC1)N1CCC2(CC1)[C@H](O)C[C@@H]2O
cytotoxicity at 70.5 h: -12.2%

O=C(Cc1cccnc1)N1CCCC(n2cncn2)C1 (centres undefined)
cytotoxicity at 70.5 h: -1.4%

CCC1c2ccccc2CCN1CCNS(C)(=O)=O (centres undefined)
cytotoxicity at 70.5 h: -4.6%

Cc1nc(C2CCCN2C(=O)c2ccc3c(c2)nc(C)n3C)no1 (centres undefined)
cytotoxicity at 70.5 h: 3.45%

Cc1noc(C(C)Nc2ccc3oc(C)nc3c2)n1 (centres undefined)
cytotoxicity at 70.5 h: 11.9%

O=C([C@H]1C[C@@H]2CCN(c3cccc(F)c3)C[C@H]2O1)N1CCCCO1
cytotoxicity at 70.5 h: -13.4%

COc1ccc(C(=O)NCc2cccnc2N2CCOCC2)o1
cytotoxicity at 70.5 h: -0.423%

CN(Cc1nnc(C2CC2)o1)Cc1ccccc1-c1ccccc1
cytotoxicity at 70.5 h: -9.25%

Cc1cnn(CC2CCN(CC(O)COc3ccc(F)cc3)CC2)c1 (centres undefined)
cytotoxicity at 70.5 h: 26.5%

COCC1CCN(C(=O)c2cn(Cc3ccccc3C(F)(F)F)nn2)C1 (centres undefined)
cytotoxicity at 70.5 h: -21.7%

Cc1csc(CN(CC2CCCO2)C(=O)c2occc2C)n1 (centres undefined)
cytotoxicity at 70.5 h: 22.1%

COCC1c2nnn(C)c2CCN1C(=O)COc1ccccc1OC (centres undefined)
cytotoxicity at 70.5 h: 1.52%

Cc1cc(C)cc(-c2ccc(CC3(C(=O)O)CCOCC3)cc2)c1
cytotoxicity at 70.5 h: 31.5%

COc1cccc(Nc2nc(C3CCCNC3)c3ccccn23)c1 (centres undefined)
cytotoxicity at 70.5 h: -7.29%

COc1ccc(C)cc1NC(=O)C1CSc2ncc(C)c(=O)n2C1 (centres undefined)
cytotoxicity at 70.5 h: 8.57%

O=C1CC(c2cccnc2)C2(CCN(C(=O)N3CCOCC3)CC2)N1 (centres undefined)
cytotoxicity at 70.5 h: -12.4%

CN(C(=O)c1ccc(C#N)cc1)C1CCN(c2ccccn2)CC1
cytotoxicity at 70.5 h: 12.7%

Cc1ccc(CN2CC(O)CN(C(=O)C3CC3)CC2=O)cc1 (centres undefined)
cytotoxicity at 70.5 h: -5.26%

Cc1csc(N2CCN(Cc3ccccn3)CC2C)n1 (centres undefined)
cytotoxicity at 70.5 h: -5.63%

O=C(CCn1c(=O)oc2ccccc21)NCC(O)c1ccc(F)c(F)c1 (centres undefined)
cytotoxicity at 70.5 h: -4.98%

O=C(Cc1ccccc1)C1CCCN(Cc2cncn2C2CCCC2)C1 (centres undefined)
cytotoxicity at 70.5 h: -7.77%

CN(C)S(=O)(=O)N1C[C@@H]2CC[C@H](C1)N(C/C=C/c1ccc(F)cc1)C2
cytotoxicity at 70.5 h: 0.852%

CN1CCN(c2cnn(Cc3ccc(S(C)(=O)=O)cc3)c(=O)c2)CC1
cytotoxicity at 70.5 h: -2.57%

Cc1ccc(-c2ccnc(N[C@H]3COC[C@@H]3N3CCCCC3)n2)c(C)n1
cytotoxicity at 70.5 h: -11.2%

Cc1cnn(CC2CCCN2C(=O)c2cccc(F)c2F)c1 (centres undefined)
cytotoxicity at 70.5 h: -1.26%

COC1CCN(C(=O)Cc2csc(-c3ncccn3)n2)CC1
cytotoxicity at 70.5 h: -3.38%

N#Cc1cccnc1N1CCCN(C(=O)CCn2cncn2)CC1
cytotoxicity at 70.5 h: -4.22%

N#Cc1cccc(NC(=O)N[C@H](CO)Cc2ccc(O)cc2)c1
cytotoxicity at 70.5 h: -9.73%

CN1CCc2c(c(COc3cncnc3)nn2CC2CC2)C1
cytotoxicity at 70.5 h: 5.89%

CC(C)(C)NC(=O)Cn1cc(C(N)=O)c(-c2ccccc2)n1
cytotoxicity at 70.5 h: -3.41%

CCCS(=O)(=O)NCc1cccnc1Oc1ccc(C)c(F)c1F
cytotoxicity at 70.5 h: -1.35%

COC(=O)[C@H](CC(C)C)NC(=O)c1snnc1-c1ccc(OC)cc1
cytotoxicity at 70.5 h: 10.9%

Cc1nc(CCNC(=O)NCc2ccc(N(C)C)nc2)cs1
cytotoxicity at 70.5 h: -8.72%

Cc1ccc2nc(-c3cnc(N)nc3)c(C)c(C(=O)N(C)C)c2c1
cytotoxicity at 70.5 h: 11.2%

CC(C)N(C)Cc1nnc2n1CCN(Cc1ccncc1)CC2
cytotoxicity at 70.5 h: -3.24%

Cc1cncc(C2CCN(Cc3ccncc3)CC2)n1
cytotoxicity at 70.5 h: -7.83%

FC(F)CNc1cnc(C2CCCN2)cn1 (centres undefined)
cytotoxicity at 70.5 h: 3.12%

O=C(Nc1ccc(F)cc1)N1C[C@H]2CC[C@@H]1CN(Cc1cccnc1)C2
cytotoxicity at 70.5 h: -3.12%

CCC1CN(C(=O)Nc2cnc3c(cnn3C(C)C)c2)CCO1 (centres undefined)
cytotoxicity at 70.5 h: 1.85%

O=C(NCc1ccncc1)N(Cc1ccccc1F)C1CC1
cytotoxicity at 70.5 h: 13%

COCCC1(CO)CCCN(Cc2ccncc2)C1 (centres undefined)
cytotoxicity at 70.5 h: -3.98%

Cc1cc(N2CCN(Cc3ccccc3)CC(O)C2)cc(C)n1 (centres undefined)
cytotoxicity at 70.5 h: 11.5%

COCCS(=O)(=O)NC(=O)c1nnn(-c2ccc(F)cc2)c1C1CC1
cytotoxicity at 70.5 h: 2%

Cc1nn(CCO)c(C)c1CNC1CCCCc2ccccc21 (centres undefined)
cytotoxicity at 70.5 h: 3.84%

COc1cc(C)ccc1OCC(=O)NS(=O)(=O)c1cc(F)ccc1F
cytotoxicity at 70.5 h: -4.22%

CC(=O)NCc1ccc(C(=O)N2CCCC(n3cncn3)C2)o1 (centres undefined)
cytotoxicity at 70.5 h: 20.5%

Cc1oc(-c2ccco2)nc1CC(=O)N1CCN(C2CCC2)CC1
cytotoxicity at 70.5 h: -1.12%

COC1CCN(c2ccc(F)cc2CN(C)C(C)C(N)=O)CC1 (centres undefined)
cytotoxicity at 70.5 h: -1.51%

CC1CCCCN1C(=O)c1ccc2c(c1)OCCCO2 (centres undefined)
cytotoxicity at 70.5 h: 10.5%

O=S(=O)(NCc1ccccc1)NCc1nc(-c2ccncc2)n[nH]1
cytotoxicity at 70.5 h: -5.68%

Cc1c(F)cccc1S(=O)(=O)NCC(C)(C)CC(C)O (centres undefined)
cytotoxicity at 70.5 h: -5.55%

CC(C)c1noc(CN2CCN(C(=O)c3cccc(F)c3)CC2)n1
cytotoxicity at 70.5 h: -8.17%

O=C(Nc1ccccc1C(=O)N1CCCC1)NC1CCOCC1
cytotoxicity at 70.5 h: -7.16%

COc1ncnc(N)c1CNCc1ccccc1-n1cccn1
cytotoxicity at 70.5 h: 6.74%

CC(C)CNC(=O)N1C[C@@H]2CCCN[C@@H]2C1
cytotoxicity at 70.5 h: -8.84%

O=C(C1CC1)N1CC[C@H]2[C@@H]1CCC(=O)N2c1ccccc1
cytotoxicity at 70.5 h: -2.42%

COc1ncc(C2(O)CCN(Cc3cc(F)cc(F)c3)CC2)c(OC)n1
cytotoxicity at 70.5 h: -2.18%

CN(Cc1cc(Cl)cc2cccnc12)CC1CCN(CCO)CC1
cytotoxicity at 70.5 h: -2.37%

CC(=O)N1CCCN(C(=O)NCc2ccccn2)CC1
cytotoxicity at 70.5 h: 3.62%

CCN(CC)CC1CCN(C(=O)CCn2cccn2)CC1
cytotoxicity at 70.5 h: -1.21%

Cc1cc(CN2CCC(CNS(=O)(=O)c3ccccc3Cl)CC2)c(C)o1
cytotoxicity at 70.5 h: -10.4%

O=C(c1ccccn1)N1Cc2ccccc2OC2(CCOCC2)C1
cytotoxicity at 70.5 h: -0.0226%

Cc1c(C(=O)O)cnn1-c1ccc(-c2nc(C(C)(C)C)no2)cn1
cytotoxicity at 70.5 h: -8.45%

CC(C)NC(=O)CC(C)NCc1cc(Cl)ccc1F (centres undefined)
cytotoxicity at 70.5 h: -3.06%
